# Test results reported in US20130131161A1, “METHODS AND COMPOSITIONS FOR CARDIOVASCULAR DISEASES AND CONDITIONS” (priority 2009, published 2013).
# Tested on: Human umbilical vein endothelial cells (HUVECs)
# Experiment: eNOS activity analysis: NO, ONOO− and NO/ONOO− release from HUVECs of 50 genotyped donors in response to LA-419 (Example 2)
# Format: cell-based
# Conditions: LA-419 5 μM
# Description: Concurrent measurements of NO and ONOO^− were carried out with tandem electrochemical nanosensors combined into one working unit with a total diameter of 200-500 nm (FIG. 1). Their design was based on previously developed and well-characterized chemically modified carbon-fiber technology (Malinski and Taha, 1992; Lvovich and Scheeline, 1997). Each of the nanosensors was made by depositing a sensing material on the tip of a carbon fiber (length 4-5 μm, diameter 0.2-0.5 μm). The fibers were sealed with nonconductive epoxy and electrically connected to copper wires with conductive silver epoxy. A conductive film of polymeric nickel (II) tetrakis(3-methoxy-4-hydroxyphenyl)porphyrin for the NO-sensor and polymeric film of Mn (III) [2.2]paracyclophanylporphyrin was used for the ONOO^−-sensor.
# A module of NO/ONOO^− nanosensors (diameter 1-2 μm) with a platinum wire (0.1 mm) counter electrode and saturated calomel reference electrode (SCE) were applied. Differential pulse voltammetry (DPV) and amperometry were performed with a computer-based Gamry VFP600 multichannel potentiostat. DPV was used to measure the basal NO and ONOO^− concentrations, and amperometry was used to measure changes in NO and ONOO^− concentrations from its basal level with time. The DPV current at the peak potential characteristic for NO oxidation (0.65 V) and ONOO^− reduction (−0.45 V) was directly proportional to the local concentrations of these compounds in the immediate vicinity of the sensor. Linear calibration curves (current vs. concentration) were constructed for each sensor from 10 nM to 3 μM before and after measurements with aliquots of NO and ONOO^− standard solutions, respectively. The detection limit of the sensors was 1.0 nM.
# The quantification of each analyte (concentration in nM) was performed using a maximum current from amperograms and standard calibration curves. A reproducibility of measurements with nanosensors is relatively high (between 5-12%). […] The sensors were slowly raised 5±2 μm from the surface of a single endothelial cell. The eNOS agonist, calcium ionophore A23187 (CaI) as well as the different drugs were then added to the surrounding media at the cell surface with a nanoinjector that was also positioned by a computer controlled-micromanipulator.
# This example describes the genotype-specific response of the three major eNOS variants to 1 μM and 5 μM concentrations of LA-419. The three major genetic polymorphisms studied were the Glu298Asp variant (E298D or 894G→T) in exon 7 of […], the −786T→C variant in the promoter region, and the intron 4 polymorphism (VNTR). All of these variants have possible effects on the cardiovascular system and endothelial dysfunction. For this study, human umbilical vein endothelial cells (HUVECs) from 50 donors between 18 and 32 years of age were used.
# For the analysis several analysis techniques were employed. First, the effect of genotype on NO and ONOO^− release was explored within the different concentrations of LA-419 (control, 1 μM, 5 μM), calculated as the average peak release (nmols/L) of NO, ONOO^−, and NO/ONOO^−. The effect of genotype on the net increase in NO, ONOO^−, and NO/ONOO^− for LA-419 (1 μM and 5 μM) as compared to control was also measured. In addition, an analysis was done on the effect of genotype on the % change in NO, ONOO^−, and NO/ONOO^− production for LA-419 (1 μM and 5 μM), calculated as:
# % Change=[(avg. LA-419−avg. control)/(avg. control)]*100
# Finally, an evaluation was undertaken concerning the effect of genotype on the production of NO, ONOO^−, and NO/ONOO^− as the fold difference of control for LA-419 (1 μM and 5 μM), calculated as:
# Fold Difference=(avg. LA-419)/(avg. control)
# Within each calculation technique the results were compared for statistical significance using a non-parametric ANOVA Kruskal-Wallace test or a non-parametric Mann-Whitney U test. Statistical significance was set at a p-value <0.05 in a two-tailed distribution. […]
# [1] = HUVECs Intron 4 variant b/a, a/a, c/c
# [2] = HUVECs T-786C variant T/C & C/C
structure (smiles),measurement,setting,value
"CC(=O)SC1COC2C(O[N+](=O)[O-])COC12 (stereo not drawn) [LA-419, S-(6-Nitro-oxi-hexahydro-furo[3,2-b]furan-3-1-il)thioacetate]",Peak release ONOO− (mean ± sd),HUVECs G894T variant G/G,288.82 (78.22) nmols/L
same,"% Change Ratio, % Change NO/% Change ONOO− (mean ± sd)",HUVECs G894T variant G/T,−0.88 (0.60)
same,Net increase over control NO (mean ± sd),HUVECs G894T variant G/T,45.87 (19.24) nmols/L
same,Net increase over control NO/ONOO− (mean ± sd),HUVECs G894T variant G/T,−0.94 (0.88)
same,Net increase over control ONOO− (mean ± sd),HUVECs G894T variant G/T,−65.80 (26.77) nmols/L
same,Peak release NO (mean ± sd),HUVECs G894T variant G/T,400.63 (80.27) nmols/L
same,Peak release NO/ONOO− (mean ± sd),HUVECs G894T variant G/T,1.44 (0.49)
same,Peak release ONOO− (mean ± sd),HUVECs G894T variant G/T,300.15 (75.86) nmols/L
same,Net increase over control NO (mean ± sd),HUVECs G894T variant G/T & T/T,45.12 (21.46) nmols/L
same,Net increase over control NO/ONOO− (mean ± sd),HUVECs G894T variant G/T & T/T,−0.91 (0.90)
same,Net increase over control ONOO− (mean ± sd),HUVECs G894T variant G/T & T/T,−69.51 (27.46) nmols/L
same,Peak release NO (mean ± sd),HUVECs G894T variant G/T & T/T,398.42 (88.37) nmols/L
same,Peak release NO/ONOO− (mean ± sd),HUVECs G894T variant G/T & T/T,1.39 (0.53)
same,Peak release ONOO− (mean ± sd),HUVECs G894T variant G/T & T/T,314.55 (84.72) nmols/L
same,"% Change Ratio, % Change NO/% Change ONOO− (mean ± sd)",HUVECs G894T variant T/T,−0.80 (0.73)
same,Net increase over control NO (mean ± sd),HUVECs G894T variant T/T,42.40 (30.77) nmols/L
same,Net increase over control NO/ONOO− (mean ± sd),HUVECs G894T variant T/T,−0.78 (1.05)
same,Net increase over control ONOO− (mean ± sd),HUVECs G894T variant T/T,−82.87 (28.56) nmols/L
same,Peak release NO (mean ± sd),HUVECs G894T variant T/T,390.47 (124.39) nmols/L
same,Peak release NO/ONOO− (mean ± sd),HUVECs G894T variant T/T,1.21 (0.68)
same,Peak release ONOO− (mean ± sd),HUVECs G894T variant T/T,366.40 (103.55) nmols/L
same,Net increase over control NO (mean ± sd),HUVECs Intron 4 variant a/a,52.00 (16.74) nmols/L
same,Net increase over control NO/ONOO− (mean ± sd),HUVECs Intron 4 variant a/a,0.41 (0.19)
same,Net increase over control ONOO− (mean ± sd),HUVECs Intron 4 variant a/a,−63.78 (14.11) nmols/L
same,Peak release NO (mean ± sd),HUVECs Intron 4 variant a/a,438.33 (79.68) nmols/L
same,Peak release NO/ONOO− (mean ± sd),HUVECs Intron 4 variant a/a,1.48 (0.64)
same,Peak release ONOO− (mean ± sd),HUVECs Intron 4 variant a/a,331.22 (117.30) nmols/L
same,Net increase over control NO (mean ± sd),HUVECs Intron 4 variant b/a,54.53 (23.50) nmols/L
same,Net increase over control NO/ONOO− (mean ± sd),HUVECs Intron 4 variant b/a,0.45 (0.22)
same,Net increase over control ONOO− (mean ± sd),HUVECs Intron 4 variant b/a,−72.30 (25.81) nmols/L
same,Peak release NO (mean ± sd),HUVECs Intron 4 variant b/a,375.20 (81.45) nmols/L
same,Peak release NO/ONOO− (mean ± sd),HUVECs Intron 4 variant b/a,1.42 (0.61)
same,Peak release ONOO− (mean ± sd),HUVECs Intron 4 variant b/a,295.73 (85.11) nmols/L
same,Net increase over control NO (mean ± sd),[1],47.30 (22.42) nmols/L
same,Net increase over control NO/ONOO− (mean ± sd),[1],0.44 (0.20)
same,Net increase over control ONOO− (mean ± sd),[1],−72.31 (23.65) nmols/L
same,Peak release NO (mean ± sd),[1],392.83 (80.05) nmols/L
same,Peak release NO/ONOO− (mean ± sd),[1],1.43 (0.57)
same,Peak release ONOO− (mean ± sd),[1],305.67 (86.01) nmols/L
same,Net increase over control NO (mean ± sd),HUVECs Intron 4 variant b/b,47.30 (22.42) nmols/L
same,Net increase over control NO/ONOO− (mean ± sd),HUVECs Intron 4 variant b/b,0.43 (0.20)
same,Net increase over control ONOO− (mean ± sd),HUVECs Intron 4 variant b/b,−70.32 (30.56) nmols/L
same,Peak release NO (mean ± sd),HUVECs Intron 4 variant b/b,400.83 (81.57) nmols/L
same,Peak release NO/ONOO− (mean ± sd),HUVECs Intron 4 variant b/b,1.46 (0.51)
same,Peak release ONOO− (mean ± sd),HUVECs Intron 4 variant b/b,298.99 (79.66) nmols/L
same,Net increase over control NO (mean ± sd),HUVECs Intron 4 variant c/c,64.00 (0) nmols/L
same,Net increase over control NO/ONOO− (mean ± sd),HUVECs Intron 4 variant c/c,0.46 (0)
same,Net increase over control ONOO− (mean ± sd),HUVECs Intron 4 variant c/c,−98.00 (0) nmols/L
same,Peak release NO (mean ± sd),HUVECs Intron 4 variant c/c,432.67 (0) nmols/L
same,Peak release NO/ONOO− (mean ± sd),HUVECs Intron 4 variant c/c,1.32 (0)
same,Peak release ONOO− (mean ± sd),HUVECs Intron 4 variant c/c,328.33 (0) nmols/L
same,"% Change Ratio, % Change NO/% Change ONOO− (mean ± sd)",HUVECs T-786C variant C/C,−0.62 (0.39)
same,Net increase over control NO (mean ± sd),HUVECs T-786C variant C/C,38.00 (17.39) nmols/L
same,Net increase over control NO/ONOO− (mean ± sd),HUVECs T-786C variant C/C,−0.52 (0.36)
same,Net increase over control ONOO− (mean ± sd),HUVECs T-786C variant C/C,−82.58 (26.16) nmols/L
same,Peak release NO (mean ± sd),HUVECs T-786C variant C/C,370.17 (86.78) nmols/L
same,Peak release NO/ONOO− (mean ± sd),HUVECs T-786C variant C/C,1.32 (0.71)
same,Peak release ONOO− (mean ± sd),HUVECs T-786C variant C/C,322.33 (110.70) nmols/L
same,"% Change Ratio, % Change NO/% Change ONOO− (mean ± sd)",HUVECs T-786C variant T/C,−0.81 (0.56)
same,Net increase over control NO (mean ± sd),HUVECs T-786C variant T/C,47.26 (23.70) nmols/L
same,Net increase over control NO/ONOO− (mean ± sd),HUVECs T-786C variant T/C,−0.86 (0.80)
same,Net increase over control ONOO− (mean ± sd),HUVECs T-786C variant T/C,−65.86 (23.41) nmols/L
same,Peak release NO (mean ± sd),HUVECs T-786C variant T/C,396.81 (95.72) nmols/L
same,Peak release NO/ONOO− (mean ± sd),HUVECs T-786C variant T/C,1.41 (0.56)
same,Peak release ONOO− (mean ± sd),HUVECs T-786C variant T/C,310.97 (82.59) nmols/L
same,Net increase over control NO (mean ± sd),[2],45.89 (22.83) nmols/L
same,Net increase over control NO/ONOO− (mean ± sd),[2],−0.81 (0.76)
same,Net increase over control ONOO− (mean ± sd),[2],−68.33 (24.07) nmols/L
same,Peak release NO (mean ± sd),[2],392.86 (93.35) nmols/L
same,Peak release NO/ONOO− (mean ± sd),[2],1.39 (0.57)
same,Peak release ONOO− (mean ± sd),[2],312.65 (84.87) nmols/L
same,"% Change Ratio, % Change NO/% Change ONOO− (mean ± sd)",HUVECs T-786C variant T/T,−0.90 (0.47)
same,Net increase over control NO (mean ± sd),HUVECs T-786C variant T/T,55.91 (19.06) nmols/L
same,Net increase over control NO/ONOO− (mean ± sd),HUVECs T-786C variant T/T,−0.95 (0.67)
same,Net increase over control ONOO− (mean ± sd),HUVECs T-786C variant T/T,−76.48 (33.23) nmols/L
same,Peak release NO (mean ± sd),HUVECs T-786C variant T/T,405.83 (58.51) nmols/L
same,Peak release NO/ONOO− (mean ± sd),HUVECs T-786C variant T/T,1.52 (0.45)
same,Peak release ONOO− (mean ± sd),HUVECs T-786C variant T/T,286.47 (76.65) nmols/L
same,"% increase in peak NO generation, range within genotype groups",Table u1,11.6 to 17.4%
same,"increase in NO/OONO− ratio, range over all genotypes",Table u3,37-53%
same,peak release of NO versus control,all genotypes (Table b1),increase
same,"greater net increase in NO, major allele variant vs minor allele carriers","exon 7, p 0.10",22%
same,"greater net increase in NO, major allele variant vs minor allele carriers","promoter, p 0.12",22%
